Data published in article PMC12136037, “Type II kinase inhibitors that target Parkinson’s disease–associated LRRK2” (Science Advances, 2025).

Key:
Assay in all cases: DSF 100 kinase selectivity screen;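 note: compound tested at 20 µM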
Format in all cases: binding
[1] = target: T1, ~100 representative kinases (Homo sapiens, UniProt O14976); conditions: protein GAK; average of three replicates
T1 construct: Recombinant protein kinase domains with a concentration of 2 μM
T1 sequence (O14976 1-1311): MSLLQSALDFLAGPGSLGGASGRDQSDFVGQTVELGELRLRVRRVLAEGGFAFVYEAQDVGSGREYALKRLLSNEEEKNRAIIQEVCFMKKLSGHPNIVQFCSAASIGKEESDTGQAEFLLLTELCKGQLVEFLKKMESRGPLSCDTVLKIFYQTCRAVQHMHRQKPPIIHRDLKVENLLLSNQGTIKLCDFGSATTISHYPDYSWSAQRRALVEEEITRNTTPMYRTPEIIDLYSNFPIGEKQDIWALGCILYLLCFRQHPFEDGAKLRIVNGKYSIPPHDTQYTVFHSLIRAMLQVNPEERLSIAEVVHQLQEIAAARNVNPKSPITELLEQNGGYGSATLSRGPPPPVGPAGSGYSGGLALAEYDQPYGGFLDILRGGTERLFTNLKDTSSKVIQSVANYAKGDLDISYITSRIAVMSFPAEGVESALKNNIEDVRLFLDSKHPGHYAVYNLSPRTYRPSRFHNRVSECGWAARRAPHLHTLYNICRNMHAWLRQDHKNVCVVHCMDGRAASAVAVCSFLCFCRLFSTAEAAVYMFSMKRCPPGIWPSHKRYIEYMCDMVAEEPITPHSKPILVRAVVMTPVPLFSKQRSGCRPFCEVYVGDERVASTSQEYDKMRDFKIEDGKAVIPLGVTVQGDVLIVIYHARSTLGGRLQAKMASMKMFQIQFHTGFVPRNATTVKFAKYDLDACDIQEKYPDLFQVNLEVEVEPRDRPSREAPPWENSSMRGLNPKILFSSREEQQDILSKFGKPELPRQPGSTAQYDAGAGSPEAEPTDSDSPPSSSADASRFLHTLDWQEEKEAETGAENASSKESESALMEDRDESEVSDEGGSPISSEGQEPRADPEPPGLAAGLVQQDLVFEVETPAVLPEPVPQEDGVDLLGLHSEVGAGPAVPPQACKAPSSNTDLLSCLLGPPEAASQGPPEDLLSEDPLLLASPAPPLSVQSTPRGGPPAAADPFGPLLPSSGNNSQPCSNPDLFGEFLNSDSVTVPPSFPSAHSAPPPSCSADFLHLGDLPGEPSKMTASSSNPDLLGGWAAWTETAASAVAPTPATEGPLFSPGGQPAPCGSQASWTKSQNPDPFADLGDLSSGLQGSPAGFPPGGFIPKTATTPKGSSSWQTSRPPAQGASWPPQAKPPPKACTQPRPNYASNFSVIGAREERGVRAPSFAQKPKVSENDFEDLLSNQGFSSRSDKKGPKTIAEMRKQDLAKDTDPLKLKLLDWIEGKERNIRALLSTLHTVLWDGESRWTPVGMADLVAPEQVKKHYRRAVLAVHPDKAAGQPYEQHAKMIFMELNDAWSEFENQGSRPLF
Method in brief: (§1)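 Each kinase domain, at 2 μM, is mixed with 20 μM test compound and SYPRO Orange in Hepes (20 mM, pH 7.5) with 500 mM NaCl. Temperature is then raised at 3°C/min and fluorescence-monitored unfolding yields the melting temperature change, ΔTm in degrees Celsius.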

[2] = target: T2, ~100 representative kinases (Homo sapiens, UniProt O94804); conditions: Protein STK10; DSF; average of three replicates
T2 construct: Recombinant protein kinase domains with a concentration of 2 μM
T2 sequence (O94804 whole entry, the tested form may be a part): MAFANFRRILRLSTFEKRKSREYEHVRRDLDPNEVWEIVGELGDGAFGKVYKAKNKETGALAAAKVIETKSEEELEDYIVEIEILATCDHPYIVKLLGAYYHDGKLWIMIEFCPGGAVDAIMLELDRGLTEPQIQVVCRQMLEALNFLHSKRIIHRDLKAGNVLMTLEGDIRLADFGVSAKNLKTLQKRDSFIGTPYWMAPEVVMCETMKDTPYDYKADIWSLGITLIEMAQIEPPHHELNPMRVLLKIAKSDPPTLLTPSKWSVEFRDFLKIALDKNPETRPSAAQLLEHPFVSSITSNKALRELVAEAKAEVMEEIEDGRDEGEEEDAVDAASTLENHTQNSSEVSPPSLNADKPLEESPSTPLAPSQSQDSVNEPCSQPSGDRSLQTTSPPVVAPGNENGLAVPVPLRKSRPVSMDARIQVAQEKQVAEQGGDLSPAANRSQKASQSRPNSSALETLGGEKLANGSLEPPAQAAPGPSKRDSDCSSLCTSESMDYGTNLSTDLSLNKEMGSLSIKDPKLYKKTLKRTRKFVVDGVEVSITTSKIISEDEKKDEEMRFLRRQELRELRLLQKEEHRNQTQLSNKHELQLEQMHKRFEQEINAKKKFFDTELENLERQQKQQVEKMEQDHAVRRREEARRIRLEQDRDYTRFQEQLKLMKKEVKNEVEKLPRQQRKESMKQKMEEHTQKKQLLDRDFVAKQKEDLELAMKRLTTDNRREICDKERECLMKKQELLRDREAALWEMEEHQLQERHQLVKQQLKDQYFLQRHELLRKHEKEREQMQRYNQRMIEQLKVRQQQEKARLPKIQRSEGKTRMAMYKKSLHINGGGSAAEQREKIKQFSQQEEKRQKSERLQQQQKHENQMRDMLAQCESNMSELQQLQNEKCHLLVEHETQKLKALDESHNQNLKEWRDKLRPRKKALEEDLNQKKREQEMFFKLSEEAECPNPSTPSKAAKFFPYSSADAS
Method in brief: as §1

[3] = target: T3, ~100 representative kinases (Homo sapiens, UniProt O96017); conditions: Protein CHEK2; average of three replicates
T3 construct: Recombinant protein kinase domains with a concentration of 2 μM
T3 sequence (O96017 whole entry, the tested form may be a part): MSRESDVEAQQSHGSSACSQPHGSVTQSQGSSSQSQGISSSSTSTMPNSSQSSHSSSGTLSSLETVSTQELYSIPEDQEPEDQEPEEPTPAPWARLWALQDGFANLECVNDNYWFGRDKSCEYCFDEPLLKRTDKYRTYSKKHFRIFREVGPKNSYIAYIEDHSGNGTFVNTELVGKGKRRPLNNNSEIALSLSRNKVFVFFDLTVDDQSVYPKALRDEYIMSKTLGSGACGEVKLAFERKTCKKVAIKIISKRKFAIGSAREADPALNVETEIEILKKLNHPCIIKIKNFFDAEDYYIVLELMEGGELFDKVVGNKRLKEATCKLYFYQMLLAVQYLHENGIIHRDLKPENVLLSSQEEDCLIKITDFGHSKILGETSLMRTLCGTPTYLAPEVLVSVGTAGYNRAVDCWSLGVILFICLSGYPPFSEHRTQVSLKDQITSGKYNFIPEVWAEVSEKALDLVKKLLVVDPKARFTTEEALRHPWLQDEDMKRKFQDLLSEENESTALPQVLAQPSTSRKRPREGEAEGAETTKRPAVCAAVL
Method in brief: as §1

[4] = target: T4, ~100 representative kinases (Homo sapiens, UniProt P54753); conditions: Protein EPHB3A; average of three replicates
T4 construct: Recombinant protein kinase domains with a concentration of 2 μM
T4 sequence (P54753 34-998): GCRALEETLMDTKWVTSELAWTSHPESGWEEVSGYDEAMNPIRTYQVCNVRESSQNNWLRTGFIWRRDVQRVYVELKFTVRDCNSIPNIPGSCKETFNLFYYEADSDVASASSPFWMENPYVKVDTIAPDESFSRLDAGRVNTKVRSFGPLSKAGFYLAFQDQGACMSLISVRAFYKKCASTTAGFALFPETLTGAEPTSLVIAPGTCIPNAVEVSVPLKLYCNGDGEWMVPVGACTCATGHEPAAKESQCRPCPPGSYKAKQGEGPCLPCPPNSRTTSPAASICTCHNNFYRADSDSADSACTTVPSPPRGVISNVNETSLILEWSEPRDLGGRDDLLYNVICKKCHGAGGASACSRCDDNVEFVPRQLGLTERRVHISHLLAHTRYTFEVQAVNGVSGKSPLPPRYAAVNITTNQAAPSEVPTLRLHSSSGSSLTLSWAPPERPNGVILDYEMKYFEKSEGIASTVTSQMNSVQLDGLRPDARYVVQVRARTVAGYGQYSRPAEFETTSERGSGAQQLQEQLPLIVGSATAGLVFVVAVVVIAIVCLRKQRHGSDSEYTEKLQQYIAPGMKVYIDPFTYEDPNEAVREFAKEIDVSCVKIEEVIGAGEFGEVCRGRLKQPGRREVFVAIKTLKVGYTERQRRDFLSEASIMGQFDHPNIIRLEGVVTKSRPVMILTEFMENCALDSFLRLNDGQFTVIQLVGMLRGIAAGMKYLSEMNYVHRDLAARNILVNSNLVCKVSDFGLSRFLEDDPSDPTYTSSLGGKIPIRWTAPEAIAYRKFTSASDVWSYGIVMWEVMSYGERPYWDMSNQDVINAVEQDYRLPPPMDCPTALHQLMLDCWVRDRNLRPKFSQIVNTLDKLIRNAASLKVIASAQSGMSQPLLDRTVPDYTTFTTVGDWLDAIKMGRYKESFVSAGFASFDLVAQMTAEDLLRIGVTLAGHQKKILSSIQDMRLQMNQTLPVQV
Method in brief: as §1

[5] = target: T5, ~100 representative kinases (Homo sapiens, UniProt Q16539); conditions: protein MAPK14; average of three replicates
T5 construct: Recombinant protein kinase domains with a concentration of 2 μM
T5 sequence (Q16539 whole entry, the tested form may be a part): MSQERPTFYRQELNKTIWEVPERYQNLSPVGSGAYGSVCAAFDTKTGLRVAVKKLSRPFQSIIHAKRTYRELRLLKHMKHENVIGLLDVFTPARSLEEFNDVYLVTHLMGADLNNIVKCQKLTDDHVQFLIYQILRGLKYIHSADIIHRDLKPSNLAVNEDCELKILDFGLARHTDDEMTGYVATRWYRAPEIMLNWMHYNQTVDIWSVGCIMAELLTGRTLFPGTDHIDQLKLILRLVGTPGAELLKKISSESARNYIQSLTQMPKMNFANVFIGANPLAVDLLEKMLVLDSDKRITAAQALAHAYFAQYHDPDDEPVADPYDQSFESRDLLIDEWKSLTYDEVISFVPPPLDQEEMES
Method in brief: as §1

[6] = target: T6, ~100 representative kinases (Homo sapiens, UniProt Q8TDX7); conditions: protein NEK7; average of three replicates
T6 construct: Recombinant protein kinase domains with a concentration of 2 μM
T6 sequence (Q8TDX7 whole entry, the tested form may be a part): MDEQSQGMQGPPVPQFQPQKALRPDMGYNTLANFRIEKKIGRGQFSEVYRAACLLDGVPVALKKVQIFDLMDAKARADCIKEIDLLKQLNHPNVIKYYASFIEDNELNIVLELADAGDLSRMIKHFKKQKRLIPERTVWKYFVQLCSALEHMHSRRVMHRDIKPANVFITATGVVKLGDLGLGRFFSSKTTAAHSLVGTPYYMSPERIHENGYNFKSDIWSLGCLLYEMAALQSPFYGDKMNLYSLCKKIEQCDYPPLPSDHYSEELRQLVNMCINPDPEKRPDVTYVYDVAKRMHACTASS
Method in brief: as §1

[7] = target: T7, ~100 representative kinases (Homo sapiens, UniProt Q9UEW8); conditions: Protein STK39; DSF; average of three replicates
T7 construct: Recombinant protein kinase domains with a concentration of 2 μM
Method in brief: as §1

[8] = target: T8, ~100 representative kinases (Homo sapiens, UniProt Q9Y6E0); conditions: protein MST3; average of three replicates
T8 construct: Recombinant protein kinase domains with a concentration of 2 μM
T8 sequence (Q9Y6E0 whole entry, the tested form may be a part): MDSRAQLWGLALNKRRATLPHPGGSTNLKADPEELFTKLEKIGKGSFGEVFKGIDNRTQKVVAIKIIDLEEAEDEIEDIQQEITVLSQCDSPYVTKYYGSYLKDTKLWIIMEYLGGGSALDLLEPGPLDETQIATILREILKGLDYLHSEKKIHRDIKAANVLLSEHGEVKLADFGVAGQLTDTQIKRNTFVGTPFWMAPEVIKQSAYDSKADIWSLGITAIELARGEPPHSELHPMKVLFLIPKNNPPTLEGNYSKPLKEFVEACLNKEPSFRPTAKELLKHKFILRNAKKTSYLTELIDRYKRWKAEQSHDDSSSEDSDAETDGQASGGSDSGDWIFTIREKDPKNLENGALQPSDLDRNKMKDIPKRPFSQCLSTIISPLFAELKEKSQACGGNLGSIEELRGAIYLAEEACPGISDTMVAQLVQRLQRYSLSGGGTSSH
Method in brief: as §1

dTm [1]	dTm [2]	dTm [3]	dTm [4]	dTm [5]	dTm [6]	dTm [7]	dTm [8]	Structure (SMILES)
3.76 K	-1.61 K	7.39 K	-1.89 K	-0.35 K	-0.25 K	3.58 K	-2.45 K	COc1cc(S(C)(=O)=O)ccc1Nc1nc(N(C)C)c2c(Cl)c[nH]c2n1 [Compound 37]
0.91 K	12.57 K	2.81 K	-0.51 K	2.01 K	-0.33 K	0.00 K	3.50 K	O=C(Nc1cccc(-c2c[nH]c3ncnc(N4CCOCC4)c23)c1)C1(C(=O)Nc2ccc(F)c(Br)c2F)CC1 [Compound 26]
0.09 K	12.89 K	6.14 K	4.01 K	0.36 K	-0.42 K	1.18 K	2.23 K	CCc1ccc(NC(=O)C2(C(=O)Nc3cccc(-c4c[nH]c5ncnc(N6CCOCC6)c45)c3)CC2)cc1 [Compound 15]
0.00 K	20.37 K	12.51 K	-2.20 K	5.90 K	-0.81 K	6.45 K	6.78 K	Cc1ccc(-n2nc(C(C)(C)C)cc2NC(=O)Nc2cccc(-c3c[nH]c4ncnc(N5CCOCC5)c34)c2)cc1 [Compound 29]
1.14 K	13.86 K	4.07 K	1.94 K	0.53 K	1.01 K	1.80 K	6.82 K	O=C(Nc1cccc(-c2c[nH]c3ncnc(N4CCOCC4)c23)c1)C1(C(=O)Nc2ccc(F)c(F)c2)CC1 [Compound 17]
0.54 K	12.16 K	4.32 K	0.65 K	0.76 K	0.39 K	1.92 K	6.57 K	COc1cc(NC(=O)C2(C(=O)Nc3cccc(-c4c[nH]c5ncnc(N6CCOCC6)c45)c3)CC2)ccc1F [Compound 21]
3.03 K	14.26 K	15.46 K	4.94 K	5.43 K	1.05 K	3.69 K	3.57 K	Cc1ccc(C(=O)Nc2ccc(CN3CCN(C)CC3)c(C(F)(F)F)c2)cc1C#Cc1c[nH]c2ncnc(N3CCOCC3)c12 [Compound 1]
0.71 K	11.10 K	2.02 K	-0.88 K	2.03 K	0.26 K	-0.03 K	0.83 K	O=C(Nc1cccc(-c2c[nH]c3ncnc(N4CCOCC4)c23)c1)C1(C(=O)Nc2cc(Br)c(F)cc2F)CC1 [Compound 25]
-0.90 K	10.11 K	1.74 K	-2.17 K	1.86 K	-0.08 K	0.00 K	3.03 K	O=C(Nc1cc(F)cc(Br)c1)C1(C(=O)Nc2cccc(-c3c[nH]c4ncnc(N5CCOCC5)c34)c2)CC1 [Compound 27]
0.0652 K	11.47 K	3.03 K	3.66 K	1.17 K	-0.10 K	4.19 K	3.28 K	O=C(Nc1cccc(-c2c[nH]c3ncnc(N4CCOCC4)c23)c1)c1cccn(-c2ccc(F)cc2)c1=O [Compound 4]
-2.23 K	15.18 K	3.64 K	0.59 K	0.60 K	0.18 K	3.92 K	0.95 K	CC(C)(C)c1cccc(NC(=O)C2(C(=O)Nc3cccc(-c4c[nH]c5ncnc(N6CCOCC6)c45)c3)CC2)c1 [Compound 22]

Structure (SMILES)	dTm [1]	dTm [2]	dTm [3]	dTm [4]	dTm [5]	dTm [6]	dTm [7]	dTm [8]
C[C@@H]1CN(c2cc(-c3n[nH]c4ccc(OC5(C)CC5)cc34)ncn2)C[C@H](C)O1 [MLi2]	0.31 K	-0.79 K	3.06 K	0.06 K	0.038 K	0.03 K	0.27 K	0.43 K
CCSc1nc(NC)c2c(-c3cccc(NC(=O)Nc4cc(C(C)(C)C)nn4-c4ccc(C)cc4)c3)c[nH]c2n1 [Compound 32]	-1.07 K	8.61 K	3.19 K	-3.33 K	5.12 K	-0.18 K	0.77 K	-1.49 K
